Calls of active or inactive are those of the source.
Assays:
[1] = target: Luciferin 4-monooxygenase (Photinus pyralis, UniProt P08659); assay: inhibition of purified Photinus pyralis luciferase – biochemical, luminescence, dose response (AID 1891)
[2] = Luminescence Cell-Based Dose Confirmation HTS to Identify Inhibitors of Platelet Dense Granule Release. [Related pubchem assays: 1663 (Primary HTS), 1678 (Summary of Project)]; assay type: functional
[3] = tested on: Streptococcus sp. 'group A'; assay: Streptococcus pyogenes SK(-)GAS viability under kanamycin – luminescence, BacTiterGlo, confirmation, counter-screen for streptokinase expression inhibitor project, dose response (AID 1900); assay type: functional, organism-based
Streptococcus = assay: GAS UMAA2166 growth inhibition – luminescence, BacTiterGlo, counter-screen for streptokinase expression inhibitor project, dose response (AID 1915); assay type: functional, organism-based;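 further: potency for reduction of bacterial viability or growth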
Streptokinase A = target: T1, Streptokinase A (Streptococcus pyogenes serotype M1, UniProt P10520); assay: viability-normalized secreted streptokinase activity reduction – plasminogen activation absorbance, OD405, dose response (AID 1914); assay type: functional, Streptococcus pyogenes M1 GAS;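 further: secreted streptokinase activity via plasminogen activation per viability signal from cell pellet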
T1 sequence (P10520 whole entry): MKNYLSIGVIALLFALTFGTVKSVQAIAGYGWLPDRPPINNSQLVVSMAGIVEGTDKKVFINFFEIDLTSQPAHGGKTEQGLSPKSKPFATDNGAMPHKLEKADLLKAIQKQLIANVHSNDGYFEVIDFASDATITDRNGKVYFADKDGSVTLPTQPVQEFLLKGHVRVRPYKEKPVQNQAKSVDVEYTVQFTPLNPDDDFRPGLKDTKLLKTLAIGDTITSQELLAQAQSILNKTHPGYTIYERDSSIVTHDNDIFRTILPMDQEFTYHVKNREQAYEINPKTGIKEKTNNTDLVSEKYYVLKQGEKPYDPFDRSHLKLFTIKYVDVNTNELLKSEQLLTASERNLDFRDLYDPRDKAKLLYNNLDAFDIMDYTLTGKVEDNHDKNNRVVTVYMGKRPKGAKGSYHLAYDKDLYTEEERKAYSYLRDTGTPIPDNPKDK

[4] = target: T2, Corticotropin-releasing factor receptor 2/Corticotropin-releasing factor-binding protein (Homo sapiens, UniProt P24387+Q13324); assay: activators of CRF receptor 2 with binding protein – uHTS hits, confirmation (AID 602473); assay type: functional; details: read-out: EC50_Mean
T2 sequence (Q13324 whole entry): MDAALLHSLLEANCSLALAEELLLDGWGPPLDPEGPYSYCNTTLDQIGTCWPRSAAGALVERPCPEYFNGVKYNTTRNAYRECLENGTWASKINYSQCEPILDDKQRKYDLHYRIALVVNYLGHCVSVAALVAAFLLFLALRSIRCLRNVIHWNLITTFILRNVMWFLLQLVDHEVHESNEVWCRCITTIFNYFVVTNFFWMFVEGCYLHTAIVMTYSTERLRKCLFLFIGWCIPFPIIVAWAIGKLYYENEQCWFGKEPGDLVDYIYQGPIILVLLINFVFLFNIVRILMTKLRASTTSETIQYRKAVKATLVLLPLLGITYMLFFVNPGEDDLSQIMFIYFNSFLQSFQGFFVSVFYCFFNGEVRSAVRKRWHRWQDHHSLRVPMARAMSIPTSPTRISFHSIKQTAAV
T2 sequence (P24387 whole entry): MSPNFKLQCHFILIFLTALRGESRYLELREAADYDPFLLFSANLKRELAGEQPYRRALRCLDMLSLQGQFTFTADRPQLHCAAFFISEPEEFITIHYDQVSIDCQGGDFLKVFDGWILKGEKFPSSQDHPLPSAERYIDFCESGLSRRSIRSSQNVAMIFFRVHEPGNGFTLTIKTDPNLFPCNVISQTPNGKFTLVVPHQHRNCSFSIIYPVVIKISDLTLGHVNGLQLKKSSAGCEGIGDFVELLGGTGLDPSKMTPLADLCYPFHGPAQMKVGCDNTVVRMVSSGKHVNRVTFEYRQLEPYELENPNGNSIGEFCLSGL

[5] = target: T2, Corticotropin-releasing factor receptor 2/Corticotropin-releasing factor-binding protein; assay: Dose Response confirmation of uHTS hits for small molecule antagonists of the CRF-binding protein and CRF-R2 receptor complex.; assay type: functional; details: read-out: IC50_Mean
[6] = NIH3T3 cell viability loss – ATP luminescence, mouse fibroblasts, counter-screen, dose response (AID 2010); assay type: functional, cell-based;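 further: cells exposed to compound for about 90 hours before reading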
[7] = Trypanosoma cruzi growth suppression in host cells – NIH3T3 host cells, beta-gal luminescence, confirmation (AID 2044); assay type: functional, cell-based;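 further: intracellular parasites grown in NIH/3T3 mouse fibroblasts as host cells; luminescent beta-galactosidase reporter signal from transgenic T. cruzi replicating inside host cells; inhibitors lower the luminescence signal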
Cytochrome P450 2C19 = Cytochrome P450 2C19 (Homo sapiens, UniProt P33261); assay: Cytochrome panel assay with activity outcomes. Panel member name: p450-cyp2c19 Compounds with AC50 equal or less than 10 uM are considered active; assay type: functional
Chain of Cytochrome P450 2C19 (P33261 whole entry): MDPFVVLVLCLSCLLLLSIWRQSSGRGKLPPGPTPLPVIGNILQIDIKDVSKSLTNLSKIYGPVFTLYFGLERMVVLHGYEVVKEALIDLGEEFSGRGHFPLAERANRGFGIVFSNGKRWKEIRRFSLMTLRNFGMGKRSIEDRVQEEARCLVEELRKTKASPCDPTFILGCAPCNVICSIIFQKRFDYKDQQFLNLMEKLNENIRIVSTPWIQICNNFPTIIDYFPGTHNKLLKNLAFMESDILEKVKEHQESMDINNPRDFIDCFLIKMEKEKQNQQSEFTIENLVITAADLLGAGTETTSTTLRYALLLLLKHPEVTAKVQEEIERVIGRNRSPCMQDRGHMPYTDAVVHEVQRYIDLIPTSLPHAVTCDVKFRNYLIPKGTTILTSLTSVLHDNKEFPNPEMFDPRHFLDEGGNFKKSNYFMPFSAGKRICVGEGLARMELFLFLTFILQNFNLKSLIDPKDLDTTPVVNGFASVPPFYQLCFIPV

Cytochrome P450 1A2 = target: T3, Cytochrome P450 1A2 (Homo sapiens, UniProt P05177);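 further: PubChem cytochrome P450 panel assay, CYP1A2 panel member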
T3 sequence (P05177 whole entry): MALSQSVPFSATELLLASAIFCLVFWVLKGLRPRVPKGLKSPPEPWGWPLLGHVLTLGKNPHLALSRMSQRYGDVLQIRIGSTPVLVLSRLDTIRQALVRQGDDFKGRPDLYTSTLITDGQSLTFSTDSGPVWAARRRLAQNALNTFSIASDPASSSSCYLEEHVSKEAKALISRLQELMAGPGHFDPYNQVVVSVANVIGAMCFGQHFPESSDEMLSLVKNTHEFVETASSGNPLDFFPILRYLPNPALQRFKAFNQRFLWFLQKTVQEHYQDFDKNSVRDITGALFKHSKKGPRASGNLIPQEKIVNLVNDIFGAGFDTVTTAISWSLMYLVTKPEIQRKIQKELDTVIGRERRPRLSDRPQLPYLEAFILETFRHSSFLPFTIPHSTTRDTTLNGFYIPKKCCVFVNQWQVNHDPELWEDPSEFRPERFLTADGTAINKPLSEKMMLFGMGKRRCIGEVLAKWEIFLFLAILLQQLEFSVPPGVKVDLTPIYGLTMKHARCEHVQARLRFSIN

Cytochrome P450 2D6 = Cytochrome P450 2D6 (Homo sapiens, UniProt P10635);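 further: CYP2D6 member of a cytochrome P450 panel assay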
Chain of Cytochrome P450 2D6 (P10635 whole entry): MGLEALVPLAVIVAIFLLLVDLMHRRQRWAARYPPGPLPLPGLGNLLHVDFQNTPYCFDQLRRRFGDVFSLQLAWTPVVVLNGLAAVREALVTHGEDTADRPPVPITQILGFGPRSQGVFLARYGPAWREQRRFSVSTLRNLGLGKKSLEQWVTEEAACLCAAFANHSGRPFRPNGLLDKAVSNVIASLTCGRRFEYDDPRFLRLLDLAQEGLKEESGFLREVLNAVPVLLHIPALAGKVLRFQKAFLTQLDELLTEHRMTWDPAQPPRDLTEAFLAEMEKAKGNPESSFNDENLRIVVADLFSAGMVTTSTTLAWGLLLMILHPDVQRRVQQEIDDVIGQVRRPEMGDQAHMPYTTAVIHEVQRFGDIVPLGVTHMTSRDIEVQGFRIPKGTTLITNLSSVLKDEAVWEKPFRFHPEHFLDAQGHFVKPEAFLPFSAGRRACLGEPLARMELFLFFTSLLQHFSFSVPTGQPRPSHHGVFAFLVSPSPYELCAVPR

Chain of Luciferin 4-monooxygenase (P08659 whole entry): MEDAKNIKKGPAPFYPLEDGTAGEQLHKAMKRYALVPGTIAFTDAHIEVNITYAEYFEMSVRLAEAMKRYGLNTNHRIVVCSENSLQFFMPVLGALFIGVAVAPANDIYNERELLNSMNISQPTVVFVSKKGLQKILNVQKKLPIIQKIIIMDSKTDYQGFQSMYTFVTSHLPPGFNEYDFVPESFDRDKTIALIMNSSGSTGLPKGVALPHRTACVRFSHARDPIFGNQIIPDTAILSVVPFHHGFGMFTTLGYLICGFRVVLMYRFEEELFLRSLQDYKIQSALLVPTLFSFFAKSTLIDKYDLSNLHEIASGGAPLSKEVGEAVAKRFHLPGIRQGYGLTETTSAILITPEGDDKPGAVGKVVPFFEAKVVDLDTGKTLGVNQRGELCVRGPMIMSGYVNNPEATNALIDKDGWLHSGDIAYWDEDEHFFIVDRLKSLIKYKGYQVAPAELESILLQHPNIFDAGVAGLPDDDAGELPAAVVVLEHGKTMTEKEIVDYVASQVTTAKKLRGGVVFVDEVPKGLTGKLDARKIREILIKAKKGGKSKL

## Cn1cc(S(=O)(=O)N2CCc3ccccc32)cc1C(=O)Nc1ccc(Cl)cc1
[1]
  EC50: > 112 µM (not active)
[2]
  EC50: > 112 µM (not active)

## CC1C/C(=N\NC(=S)NCc2ccccc2)CC(C)(C)C1 (stereo not given)
[3]
  EC50: 6.08 µM (active)
Streptococcus
  EC50: 10.4 µM (active)
Streptokinase A
  EC50: > 150 µM (not active)

## Cn1c(=O)oc2cc(S(=O)(=O)N3CCN(c4ccc(F)cc4)CC3)ccc21
[1]
  EC50: > 112 µM (not active)
[2]
  EC50: > 112 µM (not active)

## CCN1C(=O)C(=O)N(Cc2ccc(OC)c(F)c2)C1=O
[4]
  EC50: > 53 µM (inactive)
[5]
  IC50: > 47.1 µM (inactive)

## CCOc1cc(CNCCN2CCOCC2)ccc1OCc1ccccc1Cl
[6]
  EC50: 21.1 µM (active)
[7]
  EC50: 125 nM (active)
[1]
  EC50: > 112 µM (not active)
[2]
  EC50: > 112 µM (not active)

## COc1ccc(N2C(=O)c3cccc4cccc(c34)C2=O)cc1
[4]
  EC50: > 53 µM (inactive)

## CC1CCN(c2nc(N3CCCCC3)nc(N3CCCCC3)n2)CC1
[3]
  EC50: 13.7 µM (active)
Streptococcus
  EC50: > 150 µM (not active)
Streptokinase A
  EC50: 33.2 µM (active)

## NC(=O)NC(=O)COC(=O)c1ccc2c(c1)C(=O)N(Cc1ccccc1)C2=O
[1]
  EC50: > 112 µM (not active)
[2]
  EC50: > 112 µM (not active)

## c1csc(-c2csc3nc(CN4CCOCC4)nc(NCc4ccc5c(c4)OCO5)c23)c1
[6]
  EC50: > 60 µM (not active)
[3]
  EC50: 12.3 µM (active)
[7]
  EC50: 1310 nM (active)
Streptococcus
  EC50: > 150 µM (not active)
Streptokinase A
  EC50: 59.9 µM (active)

## CCNC(=O)C1OC(n2cnc3c(N)ncnc32)C(O)C1O (stereo not given)
[2]
  EC50: < 0.088 µM (active)

## Cc1ccc(CNC(=O)CCNC(=O)Cn2ccc3ccccc3c2=O)cc1
[4]
  EC50: > 53 µM (inactive)
[5]
  IC50: > 47.1 µM (inactive)

## Cc1cc(C)c2c(SCc3ccc(Cl)cc3Cl)nc(N)nc2n1
Cytochrome P450 2C19; read-out: AC50
  AC50: 1 µM (inconclusive)

## Cc1ccc(SC(C)C(=O)Nc2ccccc2C(=O)N2CCOCC2)cc1 (stereo not given)
[1]
  EC50: > 112 µM (not active)
[2]
  EC50: > 112 µM (not active)

## N[C@@H](CCCCP(=O)(O)O)C(=O)O
Cytochrome P450 1A2
  AC50: 31.6 µM (inconclusive)

## COc1ccc(-c2ccc(CN3C(C)C(=O)N(Cc4cn(Cc5ccco5)nn4)CCS3(=O)=O)cc2)cc1 (stereo not given)
[4]
  EC50: > 53 µM (inactive)
[5]
  IC50: > 47.1 µM (inactive)

## Clc1cccc(Cl)c1C1Nc2cccc3cccc(c23)N1
[3]
  EC50: 5.07 µM (active)
Streptococcus
  EC50: 19.1 µM (active)
Streptokinase A
  EC50: > 50 µM (not active)

## O=C(CN1C(=O)CCC1=O)Nc1nc(-c2cccs2)cs1
[1]
  EC50: > 112 µM (not active)
[2]
  EC50: > 112 µM (not active)

## C=CCc1cc(/C=C2\C(=N)N3N=C(CC(=O)N4CCOCC4)SC3=NC2=O)cc(OC)c1O
[4]
  EC50: 6.76 µM (active)

## CC1=CC(C)(C)n2c(O)c(N=N)c3c(C)c(C)cc1c32
[3]
  EC50: 8.93 µM (active)
Streptococcus
  EC50: > 150 µM (not active)
Streptokinase A
  EC50: 16.3 µM (active)

## CCC(=O)Nc1nc2ccccc2n1Cc1ccccc1C
[3]
  EC50: 2.29 µM (active)
Streptococcus
  EC50: > 150 µM (not active)
Streptokinase A
  EC50: > 150 µM (not active)

## NC(=O)c1ccc(C2SCC(=O)N2Cc2ccccc2)cc1 (stereo not given)
[4]
  EC50: > 53 µM (inactive)
[5]
  IC50: > 47.1 µM (inactive)

## S=C(NCc1ccc(Cl)c(Cl)c1)Nc1ccc2c(c1)OCO2
[4]
  EC50: > 53 µM (inactive)
[5]
  IC50: > 47.1 µM (inactive)

## Cc1ccc(C(=O)NC2CCCC2)s1
[3]
  EC50: > 150 µM (not active)
Streptococcus
  EC50: > 150 µM (not active)
Streptokinase A
  EC50: > 150 µM (not active)

## CC(C(=O)NCCN1CCOCC1)(c1ccccc1)c1ccccc1
[4]
  EC50: > 53 µM (inactive)
[5]
  IC50: > 47.1 µM (inactive)

## CCOC(=O)CCCNC(=O)c1cncc(Br)c1
Cytochrome P450 2C19; read-out: AC50
  AC50: 39.8 µM (inconclusive)

## N[C@@]1(C(=O)O)CN[C@H](C(=O)O)C1
Cytochrome P450 1A2
  AC50: 31.6 µM (inconclusive)

## Cc1ccc(Nc2ncccc2C(=O)NCc2cccs2)c(C)c1
Cytochrome P450 2D6
  AC50: 25.1 µM (inconclusive)
Cytochrome P450 2C19; read-out: AC50
  AC50: 7.08 µM (inconclusive)

## CCCCCCCCCOC(=O)C[n+]1csc(CCO)c1C
[4]
  EC50: > 53 µM (inactive)
[5]
  IC50: > 47.1 µM (inactive)

## O=C(NC(Cc1c[nH]c2ccccc12)C(=O)N/N=C/c1cccc2ccccc12)c1cccs1 (stereo not given)
[3]
  EC50: 5.65 µM (active)
Streptococcus
  EC50: 39.5 µM (active)
Streptokinase A
  EC50: > 150 µM (not active)

## COc1ccc(-c2nc3cnc(N(C)C)nc3n(CCc3ccccc3)c2=O)cc1
Cytochrome P450 1A2
  AC50: 1.26 µM (inconclusive)

## CSCCC(NC(=O)c1cccc(C)c1)C(=O)NNC(=O)c1cccs1 (stereo not given)
[4]
  EC50: > 53 µM (inactive)
[5]
  IC50: > 47.1 µM (inactive)

## O=C(CCOc1ccccc1)Nc1ccc([N+](=O)[O-])cc1
[4]
  EC50: > 53 µM (inactive)
[5]
  IC50: > 47.1 µM (inactive)

## Cc1c(C(=O)N2CCCC2)sc(NC(=O)c2ccc(Cl)cc2)c1C#N
[1]
  EC50: > 112 µM (not active)
[2]
  EC50: > 112 µM (not active)

## CC(C)S(=O)(=O)c1csc(C(=O)Nc2ccc(F)cc2)c1N
[1]
  EC50: 2.33 µM (active)
[2]
  EC50: < 0.701 µM (active)

## COc1ccc2c(c1)/C(=C/c1cc(OC)c(OC)c(OC)c1)C(=O)N2
[4]
  EC50: > 53 µM (inactive)
[5]
  IC50: > 47.1 µM (inactive)

## N#CCCn1c(=O)c(-c2ccc(F)cc2)nc2cnc(N3CCOCC3)nc21
Cytochrome P450 1A2
  AC50: 20 µM (inconclusive)

## O=C(Nc1cc(Br)ccc1O)c1cc(-c2ccc3c(c2)OCO3)on1
[4]
  EC50: > 53 µM (inactive)
[5]
  IC50: > 47.1 µM (inactive)

## CS(=O)(=O)N1CCC2(CC1)CN(Cc1nccs1)C2
Cytochrome P450 1A2
  AC50: 6.31 µM (inconclusive)

## CCCN(CC(=O)Nc1ccccc1OC)C(=O)c1ccncc1
[3]
  EC50: > 150 µM (not active)
Streptococcus
  EC50: > 150 µM (not active)
Streptokinase A
  EC50: > 150 µM (not active)

## CC(=O)COc1ccc2c(C)c(C)c(=O)oc2c1
Cytochrome P450 2C19; read-out: AC50
  AC50: 0.178 µM (inconclusive)

## CCOCc1cc(CN2CCCC(CNC(=O)c3ccco3)C2)ccc1OC (stereo not given)
[4]
  EC50: > 53 µM (inactive)
[5]
  IC50: > 47.1 µM (inactive)

## O=C(O)c1ccc(N2CCCCS2(=O)=O)cc1
[3]
  EC50: > 150 µM (not active)
Streptococcus
  EC50: > 150 µM (not active)
Streptokinase A
  EC50: > 150 µM (not active)

## O=[N+]([O-])c1cc([As](=O)(O)O)ccc1O [ROXARSONE]
Cytochrome P450 2C19
  AC50: inconclusive

## O=C1CSC(c2cn(-c3ccccc3)nc2-c2ccc3c(c2)OCCO3)N1CCN1CCOCC1 (stereo not given)
[1]
  EC50: > 112 µM (not active)
[2]
  EC50: > 112 µM (not active)
